Results taken from ChEMBL document CHEMBL3885861, “Open TG-GATES”.

Organism: Rattus norvegicus
Assay: Open TG-GATES - Regimen: Single
Assay type: toxicity, organism-based, Sprague-Dawley
Design: regimen Single, gender Male, age 6 weeks
Conditions: in vivo, po, 30 mg/kg, route gavage, dose level Low; for APTT / Bas / Eos / Fbg / Hb / Ht / Lym / MCH / MCHC / MCV / Mono / Neu / PT / Plat / RBC / Ret / WBC: tissue Blood; for KIDNEY_L / KIDNEY_R / KIDNEY_TOTAL: tissue Kidney; for LIVER: tissue Liver; for A/G / ALP / ALT / AST / BUN / CRE / Ca / Cl / DBIL / GLC / IP / K / LDH / Na / PL / RALB / TBIL / TC / TG / TP / gamma-GTP: tissue Plasma

In the case of `C[C@]12CCC(=O)C=C1CC[C@@H]1[C@@H]2CC[C@@]2(C)[C@H]1CC[C@]2(C)O` [METHYLTESTOSTERONE], the TERMINAL_BW (3 h) is reported as 203.4 g, the APTT (3 h) is reported as 15.6 s and the Bas (3 h) is reported as 0%. For the same compound, the Eos (3 h) was 1%, the Fbg (3 h) was 292.4 mg/dL and the Hb (3 h) was 12.7 g/dL. For the same compound, the Ht (3 h) was 37.1%, the Lym (3 h) was 77% and the MCH (3 h) was 21.2 pg. For the same compound, the MCHC (3 h) was 34.2%, the MCV (3 h) was 61.9 fL and the Mono (3 h) was 3.8%. For the same compound, the Neu (3 h) was 17%, the PT (3 h) was 13.1 s and the Plat (3 h) was 105.6 x10_4/uL. It also gave an RBC (3 h) of 599 x10_4/ul, a Ret (3 h) of 8.5% and a WBC (3 h) of 69.9 x10_2/uL. For the same compound, the KIDNEY_L (3 h) was 0.9 g, the KIDNEY_R (3 h) was 0.9 g and the KIDNEY_TOTAL (3 h) was 1.8 g. It also gave an LIVER (3 h) of 8.6 g, an A/G (3 h) of 0.9 and an ALP (3 h) of 1715.8 IU/L. For the same compound, the ALT (3 h) was 48.8 IU/L, the AST (3 h) was 82.6 IU/L and the BUN (3 h) was 9.8 mg/dL. For the same compound, the CRE (3 h) was 0.2 mg/dL, the Ca (3 h) was 11 mg/dL and the Cl (3 h) was 106 meq/L. The DBIL (3 h) was 0.012 mg/dL, the GLC (3 h) was 181.8 mg/dL and the IP (3 h) was 9.1 mg/dL. It also gave a K (3 h) of 4.4 meq/L, an LDH (3 h) of 76.6 IU/L and a Na (3 h) of 141.4 meq/L. It also gave a PL (3 h) of 131 mg/dL, an RALB (3 h) of 2.5 g/dL and a TBIL (3 h) of 0.048 mg/dL. It also gave a TC (3 h) of 72.8 mg/dL, a TG (3 h) of 41.8 mg/dL and a TP (3 h) of 5.4 g/dL. For the same compound, the gamma-GTP (3 h) was 1 IU/L, the TERMINAL_BW (6 h) was 202.1 g and the APTT (6 h) was 17 s. The Bas (6 h) was 0.2%, the Eos (6 h) was 1% and the Fbg (6 h) was 281 mg/dL. The Hb (6 h) was 13.2 g/dL, the Ht (6 h) was 38.6% and the Lym (6 h) was 74.8%. The MCH (6 h) was 21.4 pg, the MCHC (6 h) was 34.1% and the MCV (6 h) was 62.9 fL. The Mono (6 h) was 3%, the Neu (6 h) was 20.8% and the PT (6 h) was 13.3 s. The Plat (6 h) was 112.5 x10_4/uL, the RBC (6 h) was 614.8 x10_4/ul and the Ret (6 h) was 8.1%. The WBC (6 h) was 69.8 x10_2/uL, the KIDNEY_L (6 h) was 0.9 g and the KIDNEY_R (6 h) was 0.9 g. It also gave a KIDNEY_TOTAL (6 h) of 1.8 g, an LIVER (6 h) of 8 g and an A/G (6 h) of 0.9. The ALP (6 h) was 1451.8 IU/L, the ALT (6 h) was 44.8 IU/L and the AST (6 h) was 77.4 IU/L. It also gave a BUN (6 h) of 9.4 mg/dL, a CRE (6 h) of 0.2 mg/dL and a Ca (6 h) of 10.7 mg/dL. For the same compound, the Cl (6 h) was 107.2 meq/L, the DBIL (6 h) was 0.01 mg/dL and the GLC (6 h) was 181 mg/dL. For the same compound, the IP (6 h) was 10 mg/dL, the K (6 h) was 4.2 meq/L and the LDH (6 h) was 68.2 IU/L. It also gave a Na (6 h) of 142.2 meq/L, a PL (6 h) of 120.8 mg/dL and an RALB (6 h) of 2.6 g/dL. The TBIL (6 h) was 0.042 mg/dL, the TC (6 h) was 70.6 mg/dL and the TG (6 h) was 32.8 mg/dL. For the same compound, the TP (6 h) was 5.4 g/dL, the gamma-GTP (6 h) was 1.2 IU/L and the TERMINAL_BW (9 h) was 203.1 g. For the same compound, the APTT (9 h) was 16.9 s, the Bas (9 h) was 0% and the Eos (9 h) was 1%. For the same compound, the Fbg (9 h) was 287.4 mg/dL, the Hb (9 h) was 13.2 g/dL and the Ht (9 h) was 38.3%. The Lym (9 h) was 77.2%, the MCH (9 h) was 21.4 pg and the MCHC (9 h) was 34.6%. The MCV (9 h) was 61.7 fL, the Mono (9 h) was 2.6% and the Neu (9 h) was 18.4%. It also gave a PT (9 h) of 13.3 s, a Plat (9 h) of 113.2 x10_4/uL and an RBC (9 h) of 620.8 x10_4/ul. For the same compound, the Ret (9 h) was 8.2%, the WBC (9 h) was 66.5 x10_2/uL and the KIDNEY_L (9 h) was 0.9 g. For the same compound, the KIDNEY_R (9 h) was 0.9 g, the KIDNEY_TOTAL (9 h) was 1.7 g and the LIVER (9 h) was 7.8 g. The A/G (9 h) was 0.9, the ALP (9 h) was 1527.6 IU/L and the ALT (9 h) was 39.2 IU/L. The AST (9 h) was 74.6 IU/L, the BUN (9 h) was 8.8 mg/dL and the CRE (9 h) was 0.2 mg/dL. For the same compound, the Ca (9 h) was 10.6 mg/dL, the Cl (9 h) was 107.6 meq/L and the DBIL (9 h) was 0.01 mg/dL. For the same compound, the GLC (9 h) was 185.2 mg/dL, the IP (9 h) was 10.9 mg/dL and the K (9 h) was 3.9 meq/L. The LDH (9 h) was 65.6 IU/L, the Na (9 h) was 142.8 meq/L and the PL (9 h) was 120 mg/dL. It also gave an RALB (9 h) of 2.6 g/dL, a TBIL (9 h) of 0.054 mg/dL and a TC (9 h) of 68.4 mg/dL. The TG (9 h) was 26 mg/dL, the TP (9 h) was 5.4 g/dL and the gamma-GTP (9 h) was 1.6 IU/L. It also gave a TERMINAL_BW (24 h) of 208 g, an APTT (24 h) of 19.7 s and a Bas (24 h) of 0%. For the same compound, the Eos (24 h) was 0.8%, the Fbg (24 h) was 277 mg/dL and the Hb (24 h) was 13 g/dL. It also gave a Ht (24 h) of 37.9%, a Lym (24 h) of 77% and an MCH (24 h) of 21 pg. For the same compound, the MCHC (24 h) was 34.2%, the MCV (24 h) was 61.3 fL and the Mono (24 h) was 2.8%. It also gave a Neu (24 h) of 19%, a PT (24 h) of 13.1 s and a Plat (24 h) of 120.3 x10_4/uL. For the same compound, the RBC (24 h) was 619.4 x10_4/ul, the Ret (24 h) was 7.5% and the WBC (24 h) was 80.6 x10_2/uL. It also gave a KIDNEY_L (24 h) of 0.9 g, a KIDNEY_R (24 h) of 0.9 g and a KIDNEY_TOTAL (24 h) of 1.8 g. The LIVER (24 h) was 9.4 g, the A/G (24 h) was 0.9 and the ALP (24 h) was 1796.2 IU/L. The ALT (24 h) was 55.8 IU/L, the AST (24 h) was 81.2 IU/L and the BUN (24 h) was 13.8 mg/dL. The CRE (24 h) was 0.2 mg/dL, the Ca (24 h) was 11.1 mg/dL and the Cl (24 h) was 106.8 meq/L. For the same compound, the DBIL (24 h) was 0.016 mg/dL, the GLC (24 h) was 184.6 mg/dL and the IP (24 h) was 8.3 mg/dL. For the same compound, the K (24 h) was 4.1 meq/L, the LDH (24 h) was 82 IU/L and the Na (24 h) was 141.4 meq/L. For the same compound, the PL (24 h) was 134.2 mg/dL, the RALB (24 h) was 2.7 g/dL and the TBIL (24 h) was 0.028 mg/dL. It also gave a TC (24 h) of 68.2 mg/dL, a TG (24 h) of 84.2 mg/dL and a TP (24 h) of 5.7 g/dL. The gamma-GTP (24 h) was 1 IU/L.
